Source: publication PMC7001764 (Cell reports, 2020)

T1: CAPN5-PC (calpain-5 protease core) (Homo sapiens, UniProt O15484)
T1 sequence (O15484 1-343): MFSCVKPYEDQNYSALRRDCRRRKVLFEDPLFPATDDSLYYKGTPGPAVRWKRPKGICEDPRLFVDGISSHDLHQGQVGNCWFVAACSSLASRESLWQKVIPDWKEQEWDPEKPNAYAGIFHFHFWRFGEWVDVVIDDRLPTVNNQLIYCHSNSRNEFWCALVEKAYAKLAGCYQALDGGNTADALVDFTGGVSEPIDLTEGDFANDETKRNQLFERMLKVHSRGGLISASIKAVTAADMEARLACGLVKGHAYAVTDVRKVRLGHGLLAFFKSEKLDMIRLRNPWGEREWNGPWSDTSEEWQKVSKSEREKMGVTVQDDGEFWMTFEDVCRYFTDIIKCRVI


What was measured:
[1] = molecular target: T1, CAPN5-PC (calpain-5 protease core); assay: inhibition of Ac-LLY-AFC hydrolysis by purified CAPN5-PC; format: biochemical
[2] = substrate: CC(=O)N[C@@H](CC(C)C)C(=O)N[C@@H](CC(C)C)C(=O)N[C@@H](Cc1ccc(O)cc1)C(=O)Nc1ccc2c(C(F)(F)F)cc(=O)oc2c1; assay: purified protein; settings: Ca2+ ([…])

| IC50 [1] [µM] | Molecule | Km [2] |
| --- | --- | --- |
| 1.2 ± 0.3 | CC(C)C[C@H](NC(=O)[C@H]1O[C@@H]1C(=O)O)C(=O)NCCCCN=C(N)N [E-64] |  |
|  | CAPN5-PC (calpain-5 protease core) (Homo sapiens) (protein) MFSCVKPYEDQNYSALRRDCRRRKVLFEDPLFPATDDSLYYKGTPGPAVRWKRPKGICEDPRLFVDGISSHDLHQGQVGNCWFVAACSSLASRESLWQKVIPDWKEQEWDPEKPNAYAGIFHFHFWRFGEWVDVVIDDRLPTVNNQLIYCHSNSRNEFWCALVEKAYAKLAGCYQALDGGNTADALVDFTGGVSEPIDLTEGDFANDETKRNQLFERMLKVHSRGGLISASIKAVTAADMEARLACGLVKGHAYAVTDVRKVRLGHGLLAFFKSEKLDMIRLRNPWGEREWNGPWSDTSEEWQKVSKSEREKMGVTVQDDGEFWMTFEDVCRYFTDIIKCRVI | 153 × 10^2 ± 38 μM |
